One compound from US10655185B2, “Methods for diagnosis and prognosis of epithelial tumors” (H. Lee Moffitt Cancer Center and Research Institute, Inc., priority 2014, dated 2020) can be followed below.

For this experiment, the system named is LNCaP-104S cells. Briefly: Genome-wide miRNA expression profiling of androgen deprived / androgen blocked LNCaP cells. It counts as cell-based. The source says: FIGS. 1A and 1B show expression of miR-17-92 and Frabin in Androgen Deprived LNCaP Cells. The androgen dependent cell line, LNCaP-104S, was subjected to androgen deprivation or androgen blockade for 3 weeks. Genome-wide miRNA expression profiling identified the miR-17-92 family to be down regulated by 1 week, and further reduced at 3 weeks of treatment. […] FIG. 1B is a Western blot of FGD4/Frabin expression in treated and untreated LNCaP-104S cells.
Prolonged androgen blockade leads to outgrowth of androgen independent (AI) cells and the development of castration resistant prostate cancer (CRPC). The transition to androgen independence can occur through several adaptive mechanisms and usually results in the acquisition of a more aggressive phenotype, compared to their androgen sensitive progenitors. […] However, the role of miRNAs in progression of androgen sensitive prostate cancer to CRPC has not been clearly defined. To study this transition, androgen sensitive (AS) LNCaP prostate cancer cells were subjected to androgen blockade until a subset of cells (CDXR) survived. […] The miR-17-92 cluster is one of the groups of miRNAs that is down regulated as the cancer cells progresses towards androgen […] (ADT) resistance.

Take `CC(O)(CS(=O)(=O)c1ccc(F)cc1)C(=O)Nc1ccc(C#N)c(C(F)(F)F)c1` (stereo not shown) [CDX]: for the setting “1 wk CDX”, the “fold change in expression (Δ Change) of hsa-miR-17” value is −3.37, the “fold change in expression (Δ Change) of hsa-miR-17*” value is reported as −3.13, the “fold change in expression (Δ Change) of hsa-miR-18a” value is −4.36 and the “fold change in expression (Δ Change) of hsa-miR-18b” value is on record as −2.28. Further, for the setting “1 wk CDX”, the “fold change in expression (Δ Change) of hsa-miR-20a” value is given as −3.31, the “fold change in expression (Δ Change) of hsa-miR-20a*” value was −1.25, the “fold change in expression (Δ Change) of hsa-miR-20b*” value is on record as −0.56 and the “fold change in expression (Δ Change) of hsa-miR-106a” value is reported as −3.18. Besides, where the note is “3 wks CDX”, the “fold change in expression (Δ Change) of hsa-miR-17” value is reported as −24.99, the “fold change in expression (Δ Change) of hsa-miR-17*” value is on record as −3.94, the “fold change in expression (Δ Change) of hsa-miR-18a” value is listed as −14.13 and the “fold change in expression (Δ Change) of hsa-miR-18b” value is listed as −21.36. For the setting “3 wks CDX”, the “fold change in expression (Δ Change) of hsa-miR-20a” value is reported as −4.12, the “fold change in expression (Δ Change) of hsa-miR-20a*” value was −18.17, the “fold change in expression (Δ Change) of hsa-miR-20b*” value is on record as −4.60 and the “fold change in expression (Δ Change) of hsa-miR-106a” value is on record as −9.40.
